According to patent publication EP0003008A1 (priority 1977, dated 1979):
“And” between values parts separate entries of the source, which are not always exact repeats. Equal values may be shown once. Read-outs that look alike come from different tables or passages of the source.

Experiments:
[1] = Acid stability test in 0.1 N HCl, thin layer chromatography estimate of decomposition products; type: physicochemical; conditions: 100 µg compound applied
Description: The acid stability was investigated by dissolving 5 mg of each compound in 1 ml of 0.1 N HC1 in a test tube. For use as references 0.2 ml of each solution was withdrawn, immediately treated with 0.2 ml of a 10 % aqueous solution of NaHCO3 and frozen. The remaining 0.8 ml of each solution was incubated at 37°C for 2 hours. After incubation, 0.8 ml of a 10 % aqueous solution of NaHCO3 was added to each solution and the solutions were frozen. The incubated compounds and the reference compounds were ly ophilized to dryness and redissolved in distilled H20, 0.2 ml and 1.0 ml respectively, for each reference solution and incubated solution. The solutions were applied to silica gel (Merck PF254, 20x20 cm) and polyethylene imine (Macherey-Nagel PEI, 20x20 cm) thin layer plates. A total of 20 µl of the reference solutions (100 µg compound) and 25 µl of the incubated solutions (100 µg compound) were applied. To each plate was also added, as references, solutions of phosphorous acid (H2HPO3) (5 and 20 µg) and of trisodiumphosphonoformate (5 and 20 µg). (Decomposition of phosphonoformic acid at low pH produces phosphorous acid).
The silica gel plates were prepared in duplicate and eluted with a solution composed of methanol - 10% aq ammonia - trichloroacetic acid - water (50-15-5-3, v/v) and the polyethylene imine plates were eluted with a 1M aq lithium chloride solution. After elution the plates were dried. One of the duplicated silica gel plates was sprayed with 4 % aq . (NH4)2MoO4 and the polyethylene imine plates were sprayed with a solution composed of 60 % HClO4 - 0.1N aq Hcl - 4% aq (NH4)2MoO4 - H2O (5-10-25-60, v/v). The silica gel plates were hriefly dried at 80-90°C and sprayed with 1% SnCl2 in 10% aq RCl. phosphorous acid and phosphonic acid groups appeared as blue apots on the siliea gel plates (System 1) and as white spots on the polyethylene imine plates (System II). The remaining duplicate silica gel plates were exposed to iodine vapor for detection of di- and triesters of phosphonoformic acid. […]

[2] = target: cell-free influenza polymerase (Influenza A virus, UniProt P03431); assay: Cell-free influenza polymerase assay; type: biochemical; conditions: in diluted urine; assay mixture includes Mn2+; used as standard; read-out: 50% inhibition
[3] = 10 µmol intraperitoneally, urine from two male mice
[4] = system: influenza (WSN Wilson Smith Neurotropic type A); assay: Plaque assay of influenza (WSN) on cell monolayers; type: cell-based, influenza virus (WSN); conditions: conc. of test compound 500 μM, 34°C for 4 days, two values given
[5] = incubated in 0.1 N HCl at 37°C for 2 hours

| Structure (SMILES) | Estimated formation of phosphorous acid [1, 5] | Recovered phosphonoformic acid activity in urine ([3]; Day 1) | Recovered phosphonoformic acid activity in urine ([3]; Day 2) | Recovered phosphonoformic acid activity in urine ([3]; Day 3) | other results |
| --- | --- | --- | --- | --- | --- |
| NC(=O)P(=O)(O)O [R1=Na R2=Na R4=H R5=H] | 15 µg |  |  |  | Estimated formation of phosphorous acid ([1]; non-incubated reference solution (figure in parenthesis)): 5 µg |
| O=C(O)P(=O)(O)O [Phosfonoformic acid, phosphonoformic acid] |  |  |  |  | IC50 [2]: 500 nM |
| CCN(CC)C(=O)P(=O)([O-])[O-].[Na+].[Na+] [VIS 232, disodium diethylcarbamoylphosphonate] |  | 0.63 µmol phosphonoformic acid | 0.36 µmol phosphonoformic acid | <0.01 µmol phosphonoformic acid |  |
| CCOP(=O)(OCC)C(=O)N(CC)CC [VIS 228, diethyl diethylcarbamoylphosphonate] |  |  |  |  | Inhibition (%) [4]: 25% and 37% |
| O=C(O)P(=O)(O)O [Trisodiumphosphonoformate, reference compound] | > 20 µg | 1.25 µmol phosphonoformic acid | 0.13 µmol phosphonoformic acid | <0.01 µmol phosphonoformic acid |  |
